These are literature values, as cited in patent US6808938B2, “Method and apparatus for assaying a drug candidate to estimate a pharmacokinetic parameter associated therewith” (Biacore AB, priority 1999, dated 2004).

The conditions of the data set: stated to explain lack of correlation at 500 μM in FIG. 7.

As to `CN1C(C(=O)Nc2ccccn2)=C(O)c2ccccc2S1(=O)=O` [Piroxicam], the Solubility is less than 500 µM.
